In ChEMBL document CHEMBL3588788, “Structure-activity relationship of hybrids of Cinchona alkaloids and bile acids with in vitro antiplasmodial and antitrypanosomal activities” (Eur J Med Chem, 2015):

How the values were obtained:
Plasmodium falciparum [1] = test: Antiplasmodial activity against Plasmodium falciparum 3D7 assessed as reduction in parasite viability by parasite lactate dehydrogenase assay; assay type: functional, organism-based
in vitro = settings: human, WI38 cells
Description: Selectivity index, ratio of IC50 against human WI38 cells to IC50 for Trypanosoma brucei brucei Lister 427 bloodstream forms

[2] = Selectivity index, ratio of IC50 against human WI38 cells to IC50 for Plasmodium falciparum 3D7; assay type: toxicity, cell-based, WI-38; settings: read-out: Ratio IC50
[3] = Cytotoxicity against human WI38 cells by MTT assay; assay type: cell-based, WI-38; settings: Homo sapiens, WI-38; read-out: IC50
Plasmodium falciparum [4] = test: Potency index, ratio of IC50 for QN to IC50 for test compound against Plasmodium falciparum 3D7 by parasite lactate dehydrogenase assay; assay type: functional
[5] = system: Trypanosoma brucei brucei; test: Potency index, ratio of IC50 for QN to IC50 for test compound against Trypanosoma brucei brucei Lister 427 bloodstream forms by microtiter plate based assay; assay type: functional
[6] = system: Trypanosoma brucei brucei; test: Antitrypanosomal activity against Trypanosoma brucei brucei Lister 427 bloodstream forms by microtiter plate based assay; assay type: functional, organism-based
Plasmodium falciparum [7] = test: Potency index, ratio of IC50 for QND to IC50 for test compound against Plasmodium falciparum 3D7 by parasite lactate dehydrogenase assay; assay type: functional
[8] = system: Trypanosoma brucei brucei; test: Potency index, ratio of IC50 for QND to IC50 for test compound against Trypanosoma brucei brucei Lister 427 bloodstream forms by microtiter plate based assay; assay type: functional
[9] = system: Trypanosoma brucei brucei; test: Antitrypanosomal activity against Trypanosoma brucei brucei Lister 427 bloodstream forms assessed as inhibition of parasite growth at 20 ug/ml by microtiter plate based assay; assay type: functional
Plasmodium falciparum [10] = test: Antiplasmodial activity against Plasmodium falciparum 3D7 assessed as inhibition of parasite viability at 100 ug/ml by parasite lactate dehydrogenase assay; assay type: functional
[11] = system: Trypanosoma brucei brucei; test: Antitrypanosomal activity against Trypanosoma brucei brucei Lister 427 bloodstream forms assessed as inhibition of parasite growth at 100 ug/ml by microtiter plate based assay; assay type: functional
[12] = Cytotoxicity against human WI38 cells assessed as inhibition of cell growth at 20 ug/ml by MTT assay; assay type: cell-based, WI-38
Plasmodium falciparum [13] = test: Antiplasmodial activity against Plasmodium falciparum 3D7 assessed as inhibition of parasite viability at 20 ug/ml by parasite lactate dehydrogenase assay; assay type: functional
[14] = Cytotoxicity against human WI38 cells assessed as inhibition of cell growth at 100 ug/ml by MTT assay; assay type: cell-based, WI-38

| Compound | IC50 [6] [nM] | IC50 (Plasmodium falciparum [1]) [nM] | selectivity ratio (in vitro) | selectivity ratio [2] | IC50 [3] [µM] | Ratio IC50 (Plasmodium falciparum [4]) | Ratio IC50 [5] | Ratio IC50 (Plasmodium falciparum [7]) | Ratio IC50 [8] | inhibition at 20 µg/mL [9] [%] | inhibition at 100 µg/mL (Plasmodium falciparum [10]) [%] | inhibition at 100 µg/mL [11] [%] | inhibition at 20 ug/ml [12] [%] | inhibition at 20 µg/mL (Plasmodium falciparum [13]) [%] | inhibition at 100 ug/ml [14] [%] |
| --- | --- | --- | --- | --- | --- | --- | --- | --- | --- | --- | --- | --- | --- | --- | --- |
| C=C[C@H]1CN2CC[C@H]1C[C@@H]2[C@@H](O)c1cc(CC[C@@H](C)[C@H]2CC[C@H]3[C@@H]4CC[C@@H]5C[C@H](OC(C)=O)CC[C@]5(C)[C@H]4C[C@H](OC(C)=O)[C@]23C)nc2ccc(OC)cc12 | 690 | 195 | 7.7 | 27 | 5.33 |  |  | 1 | 37.5 |  |  |  |  |  |  |
| C=C[C@H]1CN2CC[C@H]1C[C@@H]2[C@@H](O)c1cc(CC[C@@H](C)[C@H]2CC[C@H]3[C@@H]4[C@H](OC(C)=O)C[C@@H]5C[C@H](OC(C)=O)CC[C@]5(C)[C@H]4C[C@H](OC(C)=O)[C@]23C)nc2ccc(OC)cc12 | 530 | 83.8 | 8.7 | 56 | 4.66 |  |  | 2.3 | 48.8 |  |  |  |  |  |  |
| C=C[C@H]1CN2CC[C@H]1C[C@@H]2[C@@H](O)c1cc(CC[C@@H](C)[C@H]2CC[C@H]3[C@@H]4C[C@H](O)[C@@H]5C[C@H](O)CC[C@]5(C)[C@H]4CC[C@]23C)nc2ccc(OC)cc12 | 890 | 124 | 2.5 | 18 | 2.2 |  |  | 1.6 | 29.2 |  |  |  |  |  |  |
| C=C[C@H]1CN2CC[C@H]1C[C@@H]2[C@@H](O)c1cc(CC[C@@H](C)[C@H]2CC[C@H]3[C@@H]4[C@H](O)[C@H](O)[C@@H]5C[C@H](O)CC[C@]5(C)[C@H]4CC[C@]23C)nc2ccc(OC)cc12 | 770 | 170 | 6.2 | 27.9 | 4.75 |  |  | 1.1 | 33.9 |  |  |  |  |  |  |
| C[C@H](CCC(=O)O)[C@H]1CC[C@H]2[C@@H]3C[C@H](O)[C@@H]4C[C@H](O)CC[C@]4(C)[C@H]3CC[C@]12C [HYODEOXYCHOLIC_ACID] |  | 40900 |  |  |  |  |  |  |  | 1 | 97 | 94 | 21 | 67 | 22 |
| C[C@H](CCC(=O)O)[C@H]1CC[C@H]2[C@@H]3CC[C@@H]4C[C@H](O)CC[C@]4(C)[C@H]3CC[C@]12C [LITHOCHOLIC ACID] |  | 26900 |  |  |  |  |  |  |  | 5 | 100 | 100 | 22 | 85 | 98 |

More lines, main results first:

| IC50 [6] [nM] | Compound | IC50 (Plasmodium falciparum [1]) [nM] | selectivity ratio (in vitro) | selectivity ratio [2] | IC50 [3] [µM] | Ratio IC50 (Plasmodium falciparum [4]) | Ratio IC50 [5] | Ratio IC50 (Plasmodium falciparum [7]) | Ratio IC50 [8] | inhibition at 20 µg/mL [9] [%] | inhibition at 100 µg/mL (Plasmodium falciparum [10]) [%] | inhibition at 100 µg/mL [11] [%] | inhibition at 20 ug/ml [12] [%] | inhibition at 20 µg/mL (Plasmodium falciparum [13]) [%] | inhibition at 100 ug/ml [14] [%] |
| --- | --- | --- | --- | --- | --- | --- | --- | --- | --- | --- | --- | --- | --- | --- | --- |
| 640 | C=C[C@H]1CN2CC[C@H]1C[C@H]2[C@H](O)c1cc(CC[C@@H](C)[C@H]2CC[C@H]3[C@@H]4CC[C@@H]5C[C@H](O)CC[C@]5(C)[C@H]4C[C@H](O)[C@]23C)nc2ccc(OC)cc12 | 241 | 8.2 | 22 | 5.2 | 2.6 | 33.3 |  |  |  |  |  |  |  |  |
| 1570 | C=C[C@H]1CN2CC[C@H]1C[C@H]2[C@H](O)c1cc(CC[C@@H](C)[C@H]2CC[C@H]3[C@@H]4[C@H](O)C[C@@H]5C[C@H](O)CC[C@]5(C)[C@H]4C[C@H](O)[C@]23C)nc2ccc(OC)cc12 | 1820 | 12.3 | 11 | 19.3 | 0.3 | 13.5 |  |  |  |  |  |  |  |  |
| 610 | C=C[C@H]1CN2CC[C@H]1C[C@@H]2[C@@H](O)c1cc(CC[C@@H](C)[C@H]2CC[C@H]3[C@@H]4CC[C@@H]5C[C@H](O)CC[C@]5(C)[C@H]4C[C@H](O)[C@]23C)nc2ccc(OC)cc12 | 281 | 7.1 | 15 | 4.3 |  |  | 0.7 | 42.7 |  |  |  |  |  |  |
| 1210 | C=C[C@H]1CN2CC[C@H]1C[C@@H]2[C@@H](O)c1cc(CC[C@@H](C)[C@H]2CC[C@H]3[C@@H]4[C@H](O)C[C@@H]5C[C@H](O)CC[C@]5(C)[C@H]4C[C@H](O)[C@]23C)nc2ccc(OC)cc12 | 700 | 9.8 | 17 | 11.8 |  |  | 0.3 | 21.6 |  |  |  |  |  |  |
